≈ marks a conversion by molar mass, not a printed value.
Tests used:
recombinant human PKM2 = recombinant human PKM2 (Homo sapiens (Human), UniProt P14618); test: Human PKM2 activation assay (Kinase-Glo Plus luminescence); format: biochemical; conditions: for EC50: activation of recombinant human PKM2, 4-parameter logistic fit, read-out: hPKM2 EC50; for Emax: read-out: hPKM2 Emax (%)
Experimental: Compound activation of recombinant human PKM2 pyruvate kinase activity was determined by biochemical assay. N-terminal His-tagged hPKM2 was sourced from R&D Systems and its substrates phosphoenolpyruvate (PEP) and ADP from Sigma-Aldrich and 2BScientific Ltd, respectively. The Kinase-Glo® Plus luminescence assay was from Promega. All other reagents were from Sigma-Aldrich. Test Compounds were prepared as 10 mM DMSO stocks and dilution series prepared in DMSO for direct dilution into Assay Buffer comprising 50 mM imidazole, 50 mM KCl, 7 mM MgCl2, 0.01% Tween20, 0.05% BSA (pH 7.2).
Human PKM2 was diluted into Assay Buffer comprising 50 mM imidazole, 50 mM KCl, 7 mM MgCl2, 0.01% Tween20, 0.05% BSA (pH 7.2) to a final concentration of 5 pM. Enzyme-Assay Buffer mix was dispensed into a 384-well shallow-well white-walled plate (PerkinElmer) and Test Compounds added by acoustic dispense (Echo®, Labcyte Inc.).
After 60 minutes' incubation on an orbital shaker (300 rpm, 26° C.), enzyme activity was quantified by the luminescent detection of generated ATP. Kinase-Glo® Plus reagent was added to each well and the plates incubated for a further 15 minutes on an orbital shaker in the dark (300 rpm, 26° C.) before luminescence measurement on a plate reader (PHERAstar® FSX, BMG Labtech).
EC50 and Emax values were determined from 4-parameter logistic fits of compound concentration-response curves.

[1] = Kinetic aqueous solubility; conditions: phosphate buffered saline (PBS) pH 7.4, pH 7.4, aqueous buffer, kinetic from dmso stock, Kinetic solubility (Ksol), (μg/ml), PBS pH 7.4, 200 μM (2% DMSO), RT
Experimental: Phosphate buffered saline (PBS) pH 7.4 was prepared using PBS tablets as per the manufacturer's instructions. Compounds and marker stocks are prepared at 10 mM in DMSO.
Compounds were incubated at 200 μM (2% DMSO) in Millipore—MSS LB PC 10 or Porvair—ref: 36004 plates in the presence of the prepared PBS pH 7.4 solution for 1.5 h, at RT, with gentle shaking. […] The samples were then analysed in a 96 well UV Star analysis plate on a plate reader from 220 nm to 500 nm at 10 nm increments.
The concentration of the samples was calculated against the standard curves.

recombinant human PKLR = recombinant human PKLR (Homo sapiens (Human), UniProt P30613); test: Human PKLR activation assay (Kinase-Glo Plus luminescence); conditions: for Emax: read-out: hPKLR Emax (%)
Chain of recombinant human PKLR (P30613 whole entry): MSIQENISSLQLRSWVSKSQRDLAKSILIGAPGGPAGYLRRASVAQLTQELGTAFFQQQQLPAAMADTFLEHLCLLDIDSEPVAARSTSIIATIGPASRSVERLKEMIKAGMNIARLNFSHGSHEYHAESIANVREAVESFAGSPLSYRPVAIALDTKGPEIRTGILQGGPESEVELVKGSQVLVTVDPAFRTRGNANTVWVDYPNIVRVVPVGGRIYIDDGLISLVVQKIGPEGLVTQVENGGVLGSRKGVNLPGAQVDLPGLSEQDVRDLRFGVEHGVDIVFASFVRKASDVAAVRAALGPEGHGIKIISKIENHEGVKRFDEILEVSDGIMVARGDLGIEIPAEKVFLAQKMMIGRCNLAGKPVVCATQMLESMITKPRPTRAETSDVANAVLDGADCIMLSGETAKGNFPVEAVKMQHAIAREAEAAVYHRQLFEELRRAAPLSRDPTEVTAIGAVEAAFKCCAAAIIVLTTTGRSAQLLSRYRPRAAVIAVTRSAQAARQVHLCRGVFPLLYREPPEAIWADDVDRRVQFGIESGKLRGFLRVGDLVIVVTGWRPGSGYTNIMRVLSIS
Experimental: Compound activation of recombinant human PKLR pyruvate kinase activity was determined by biochemical assay. N-terminal His-tagged enzyme was sourced from R&D Systems and its substrates phosphoenolpyruvate (PEP) and ADP from Sigma-Aldrich and 2BScientific Ltd, respectively. The Kinase-Glo® Plus luminescence assay was from Promega. All other reagents were from Sigma-Aldrich. Test Compounds were prepared as 10 mM DMSO stocks and dilution series prepared in DMSO for direct dilution into Assay Buffer comprising 50 mM imidazole, 50 mM KCl, 7 mM MgCl2, 0.01% Tween20, 0.05% BSA (pH 7.2).
Human PKLR was diluted into Assay Buffer to a final concentration of 5 pM. Enzyme-Assay Buffer mix was dispensed into 384-well shallow-well white-walled plates and Test Compounds added by acoustic dispense (Echo®, Labcyte Inc).

Chain of recombinant human PKM2 (P14618 whole entry): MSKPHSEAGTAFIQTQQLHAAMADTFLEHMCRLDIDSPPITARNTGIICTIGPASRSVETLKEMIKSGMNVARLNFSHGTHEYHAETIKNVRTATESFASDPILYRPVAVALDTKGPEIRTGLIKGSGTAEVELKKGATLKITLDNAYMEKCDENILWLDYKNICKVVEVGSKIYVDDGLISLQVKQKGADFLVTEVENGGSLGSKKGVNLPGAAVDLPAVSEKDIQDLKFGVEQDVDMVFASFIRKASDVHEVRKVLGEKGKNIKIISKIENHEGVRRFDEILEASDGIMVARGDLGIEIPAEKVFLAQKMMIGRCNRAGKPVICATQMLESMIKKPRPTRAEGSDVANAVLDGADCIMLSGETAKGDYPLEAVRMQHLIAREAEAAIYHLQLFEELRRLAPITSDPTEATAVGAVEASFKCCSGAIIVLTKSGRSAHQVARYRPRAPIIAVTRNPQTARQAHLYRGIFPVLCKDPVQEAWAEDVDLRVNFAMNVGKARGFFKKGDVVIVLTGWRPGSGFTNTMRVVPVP

Structure (SMILES)	EC50 (recombinant human PKM2) [nM]	Emax (recombinant human PKM2) [%]	solubility kinetic at 1.5 h [1] [µg/mL]	EC50 (recombinant human PKLR) [nM]	Emax (recombinant human PKLR) [%]
Cn1c2c(c3cnn(Cc4cc[nH]n4)c(=O)c31)CCN(S(C)(=O)=O)C2 [Example 4, 3-((1H-pyrazol-3-yl)methyl)-5-methyl-7-(methylsulfonyl)-3,5,6,7,8,9-hexahydro-4H-pyrido[4′,3′:4,5]pyrrolo[2,3-d]pyridazin-4-one]	1140	89.8	42 (≈ 116 µM)	60 to 320	100 to 117
Cn1c2c(c3cnn(Cc4csc5ccncc45)c(=O)c31)CCN(S(C)(=O)=O)C2 [Example 34, 5-methyl-7-(methylsulfonyl)-3-(thieno[3,2-c]pyridin-3-ylmethyl)-3,5,6,7,8,9-hexahydro-4H-pyrido[4′,3′:4,5]pyrrolo[2,3-d]pyridazin-4-one]	440	82.6	1.8 (≈ 4.19 µM)		
Cn1c2c(c3cnn(Cc4c[nH]c5cnccc45)c(=O)c31)CCN(S(C)(=O)=O)C2 [Example 36, 3-((1H-pyrrolo[2,3-c]pyridin-3-yl)methyl)-5-methyl-7-(methylsulfonyl)-3,5,6,7,8,9-hexahydro-4H-pyrido[4′,3′:4,5]pyrrolo[2,3-d]pyridazin-4-one]	71	100	> 82.5	43.5 to 60	90 to 100
Cn1c2c(c3cnn(Cc4c[nH]c5ncccc45)c(=O)c31)CCN(S(C)(=O)=O)C2 [Example 37, 3-((1H-pyrrolo[2,3-b]pyridin-3-yl)methyl)-5-methyl-7-(methylsulfonyl)-3,5,6,7,8,9-hexahydro-4H-pyrido[4′,3′:4,5]pyrrolo[2,3-d]pyridazin-4-one]	207	106	59.3 (≈ 144 µM)		
Cn1c2c(c3cnn(Cc4c[nH]c5cc(F)ccc45)c(=O)c31)CCN(S(C)(=O)=O)C2 [Example 39, 3-((6-fluoro-1H-indol-3-yl)methyl)-5-methyl-7-(methylsulfonyl)-6,7,8,9-tetrahydro-3H-pyrido[4′,3′:4,5]pyrrolo[2,3-d]pyridazin-4(5H)-one]	217	92.7	1.09 (≈ 2.54 µM)		
Cn1c2cc([S+](C)[O-])sc2c2cnn(Cc3cccc(N)c3)c(=O)c21 (stereo not drawn) [TEPP-46, reference compound]		113	0.15 (≈ 0.403 µM)		

From patent US20240409542A1, “NOVEL COMPOUNDS” (Sitryx Therapeutics Limited, priority 2021, published 2024)
